# ChEMBL document CHEMBL1944551, “An integrated computational workflow for efficient and quantitative modeling of renin inhibitors” (Bioorg Med Chem, 2012)
# Experiment: physchem
# Conditions: octanol/buffer
row,SMILES,logP
1,COc1ccccc1COCCCOc1ncc(N2C(=O)CNC[C@@H]2C(=O)N(Cc2cc(CC(=O)NC3CC3)ccc2Cl)C2CC2)cn1,3.13
2,COCCCc1ccc(Cl)c(CN(C(=O)[C@H]2CNCC(=O)N2c2ccc(OCCOc3c(Cl)cc(C)cc3Cl)cc2)C2CC2)c1,6.49
3,CN(Cc1ccccc1)C(=O)[C@H]1CNCC(=O)N1c1ccc(CCCOc2c(F)ccc(F)c2F)cc1,4.49
4,COCCc1ccc(Cl)c(CN(C(=O)[C@@H]2CNCC(=O)N2c2cnc(OCCCOCc3ccccc3OC)nc2)C2CC2)c1,3.26
5,O=C([C@H]1CNCC(=O)N1c1ccc(CCCOc2cccc(Cl)c2)cc1)N(Cc1cc(CCNCC(F)F)ccc1Cl)C1CC1,6.22
6,CNCc1ccc(Cl)c(CN(C(=O)[C@H]2CNCC(=O)N2c2ccc(CCCOc3c(F)ccc(F)c3F)cc2)C2CC2)c1,5.55
7,COc1cccc(CN(C(=O)[C@H]2CNCC(=O)N2c2ccc(OCCOc3c(Cl)cc(C)cc3Cl)nc2)C2CC2)c1C,4.66
8,CN(Cc1ccccc1)C(=O)[C@H]1CNCC(=O)N1c1ccc(CCCOc2cccc(Cl)c2)cc1,4.66
9,O=C(OCc1ccc(N2C(=O)CNC[C@@H]2C(=O)N(Cc2cc(CNCC(F)F)ccc2Cl)C2CC2)cc1)c1ccccc1,4.96
10,CN(CCCc1ccccc1)C(=O)[C@H]1CNCC(=O)N1c1ccc(CCCOc2cccc(Cl)c2)cc1,5.19
11,COCCc1ccc(Cl)c(CN(C(=O)[C@H]2CNCC(=O)N2c2ccc(OCCCOCc3ccccc3OC)cc2)C2CC2)c1,5.27
12,O=C([C@H]1CNCC(=O)N1c1ccc(CCCOc2cccc(Cl)c2)cc1)N(Cc1cc(CNCCF)ccc1Cl)C1CC1,5.84
13,COc1cccc(CN(C(=O)[C@H]2CNCC(=O)N2c2ccc(COC(=O)c3ccccc3)cc2)C2CC2)c1C,4.39
14,COCCCc1ccc(Cl)c(CN(C(=O)[C@H]2CNCC(=O)N2c2cnc(OCCCOCc3ccccc3OC)nc2)C2CC2)c1,3.7
15,COc1c(CN(C(=O)[C@H]2CNCC(=O)N2c2ccc(CCCOc3cccc(Cl)c3)cc2)C2CC2)ccnc1C,4.29
16,CNC(=O)CCc1ccc(Cl)c(CN(C(=O)[C@H]2CNCC(=O)N2c2ccc(CCCOc3c(F)ccc(F)c3F)cc2)C2CC2)c1,5.24
17,O=C(NCc1ccccc1Cl)[C@H]1CNCC(=O)N1c1ccc(CCCOc2cccc(Cl)c2)cc1,5.05
18,COCCc1ccc(Cl)c(CN(C(=O)[C@H]2CNCC(=O)N2c2ccc(COC(=O)c3ccccc3)cc2)C2CC2)c1,4.95
19,Cc1cc(Cl)c(OCCOc2ccc(N3C(=O)CNC[C@@H]3C(=O)N(Cc3cccc(C)c3C)C3CC3)cn2)c(Cl)c1,5.01
20,CCNC(=O)Cc1ccc(Cl)c(CN(C(=O)[C@H]2CNCC(=O)N2c2ccc(OCCCOCc3ccccc3OC)cc2)C2CC2)c1,4.82
21,CC(=O)NCCc1ccc(Cl)c(CN(C(=O)[C@H]2CNCC(=O)N2c2ccc(OCCCOCc3ccccc3)cc2)C2CC2)c1,4.66
22,COc1ccccc1COCCCOc1ncc(N2C(=O)CNC[C@@H]2C(=O)N(Cc2ccccc2Cl)C2CC2)cn1,3.05
23,CC(=O)NCc1ccc(Cl)c(CN(C(=O)[C@H]2CNCC(=O)N2c2ccc(OCCCOCc3ccccc3)cc2)C2CC2)c1,4.57
24,COc1ccccc1COCCCOc1ccc(N2C(=O)CNC[C@@H]2C(=O)N(Cc2cc(CCNCC(F)F)ccc2Cl)C2CC2)cc1,5.38
25,O=C([C@H]1CNCC(=O)N1c1ccc(CCCOc2c(F)ccc(F)c2F)cc1)N(Cc1cc(CNC2CC2)ccc1Cl)C1CC1,6.2

row,SMILES,logP
1,COC(=O)NCCc1ccc(Cl)c(CN(C(=O)[C@H]2CNCC(=O)N2c2ccc(COC(=O)c3ccccc3)cc2)C2CC2)c1,4.57
2,COc1ccccc1COCCCOc1ccc(N2C(=O)CNC[C@@H]2C(=O)N(Cc2cc(CNC(=O)C3CC3)ccc2Cl)C2CC2)cc1,4.87
3,CCNC(=O)Cc1ccc(Cl)c(CN(C(=O)[C@H]2CNCC(=O)N2c2ccc(OCCCOCc3ccccc3)cc2)C2CC2)c1,4.87
4,CC(=O)NCCc1ccc(Cl)c(CN(C(=O)[C@H]2CNCC(=O)N2c2ccc(COC(=O)c3ccccc3)cc2)C2CC2)c1,4.28
5,COc1ccccc1COCCCOc1ccc(N2C(=O)CNC[C@@H]2C(=O)N(Cc2cccc(C)c2C)C2CC2)cc1,5.06
6,O=C([C@H]1CNCC(=O)N1c1ccc(CCCOc2c(F)ccc(F)c2F)cc1)N(Cc1cccc(Cl)c1)C1CC1,5.77
7,COc1ccccc1COCCCOc1ccc(N2C(=O)CNC[C@@H]2C(=O)N(Cc2cc(CNC(=O)CC(F)(F)F)ccc2Cl)C2CC2)cc1,5.25
8,CNC(=O)OCc1ccc(Cl)c(CN(C(=O)[C@H]2CNCC(=O)N2c2ccc(COC(=O)c3ccccc3)cc2)C2CC2)c1,4.48
9,COC(=O)NCCc1ccc(Cl)c(CN(C(=O)[C@H]2CNCC(=O)N2c2ccc(OCCOc3c(Cl)cc(C)cc3Cl)cc2)C2CC2)c1,5.67
10,O=C([C@H]1CNCC(=O)N1c1ccc(OCCCOCc2ccccc2)cc1)N(Cc1ccccc1Cl)C1CC1,5.11
11,CNCc1ccc(Cl)c(CN(C(=O)[C@H]2CNCC(=O)N2c2ccc(OCCOc3c(Cl)cc(C)cc3Cl)cc2)C2CC2)c1,5.65
12,CCNCc1ccc(Cl)c(CN(C(=O)[C@H]2CNCC(=O)N2c2ccc(CCCOc3cccc(Cl)c3)cc2)C2CC2)c1,6.06
13,O=C([C@H]1CNCC(=O)N1c1ccc(CCCOc2c(F)ccc(F)c2F)cc1)N(Cc1cc(CNCC(F)F)ccc1Cl)C1CC1,5.96
14,COCCCc1ccc(Cl)c(CN(C(=O)[C@H]2CNCC(=O)N2c2ccc(OCCCOCc3ccccc3)cc2)C2CC2)c1,5.76
15,CC(C)(C)OCC(=O)NCCc1ccc(Cl)c(CN(C(=O)[C@H]2CNCC(=O)N2c2ccc(COC(=O)c3ccccc3)cc2)C2CC2)c1,5.28
16,COc1ccccc1COCCCOc1ccc(N2C(=O)CNC[C@@H]2C(=O)N(Cc2ccccc2Cl)C2CC2)cc1,5.06
17,Cc1cc(Cl)c(OCCOc2ccc(N3C(=O)CNC[C@@H]3C(=O)N(C)Cc3ccccc3)cc2)c(Cl)c1,4.59
18,Cc1cc(Cl)c(OCCOc2ccc(N3C(=O)CNC[C@@H]3C(=O)N(Cc3cc(CNC4CC4)ccc3Cl)C3CC3)cn2)c(Cl)c1,5.48
19,COc1ccccc1COCCCOc1ncc(N2C(=O)CNC[C@@H]2C(=O)NCc2ccccc2)cn1,1.61
20,COCCCc1ccc(Cl)c(CN(C(=O)[C@H]2CNCC(=O)N2c2ccc(OCCOc3c(Cl)cc(C)cc3Cl)nc2)C2CC2)c1,5.66
21,O=C([C@H]1CNCC(=O)N1c1ccc(CCCOc2cccc(Cl)c2)cc1)N(Cc1cccc(Cl)c1Cl)C1CC1,6.49
22,Cc1cc(Cl)c(OCCOc2ccc(N3C(=O)CNC[C@@H]3C(=O)N(Cc3cc(CCNC(=O)CC(F)(F)F)ccc3Cl)C3CC3)cc2)c(Cl)c1,6.11
23,COC(=O)NCCc1ccc(Cl)c(CN(C(=O)[C@H]2CNCC(=O)N2c2ccc(OCCCOCc3ccccc3OC)cc2)C2CC2)c1,4.9
24,CNC(=O)OCCc1ccc(Cl)c(CN(C(=O)[C@H]2CNCC(=O)N2c2ccc(CCCOc3c(F)ccc(F)c3F)cc2)C2CC2)c1,5.56
25,O=C(NCc1ccccc1)[C@H]1CNCC(=O)N1c1ccc(CCCOc2c(F)ccc(F)c2F)cc1,4.29

row,SMILES,logP
1,CC(=O)NCCc1ccc(Cl)c(CN(C(=O)[C@H]2CNCC(=O)N2c2ccc(OCCOc3c(Cl)cc(C)cc3Cl)nc2)C2CC2)c1,4.55
2,O=C(Cc1ccc(Cl)c(CN(C(=O)[C@H]2CNCC(=O)N2c2ccc(OCCCOCc3ccccc3)cc2)C2CC2)c1)NC1CC1,5.18
3,CNCc1ccc(Cl)c(CN(C(=O)[C@H]2CNCC(=O)N2c2ccc(OCCOc3c(Cl)cc(C)cc3Cl)nc2)C2CC2)c1,4.82
4,Cc1cc(Cl)c(OCCOc2ccc(N3C(=O)CNC[C@@H]3C(=O)NCc3ccccc3Cl)cn2)c(Cl)c1,4.15
5,Cc1cc(Cl)c(OCCOc2ccc(N3C(=O)CNC[C@@H]3C(=O)N(Cc3cc(CNC(=O)CC(F)(F)F)ccc3Cl)C3CC3)cc2)c(Cl)c1,6.02
6,CNCc1ccc(Cl)c(CN(C(=O)[C@@H]2CNCC(=O)N2c2cnc(OCCCOCc3ccccc3OC)nc2)C2CC2)c1,2.87
7,CNC(=O)Cc1ccc(Cl)c(CN(C(=O)[C@H]2CNCC(=O)N2c2ccc(OCCOc3c(Cl)cc(C)cc3Cl)nc2)C2CC2)c1,4.43
8,CN(CCc1ccccc1)C(=O)[C@H]1CNCC(=O)N1c1ccc(COC(=O)c2ccccc2)cc1,3.58
9,O=C([C@H]1CNCC(=O)N1c1ccc(OCCCOCc2ccccc2)cc1)N(Cc1cc(CCNCC(F)F)ccc1Cl)C1CC1,5.43
10,CC(=O)NCc1ccc(Cl)c(CN(C(=O)[C@H]2CNCC(=O)N2c2ccc(COC(=O)c3ccccc3)cc2)C2CC2)c1,4.19
11,CNCCc1ccc(Cl)c(CN(C(=O)[C@H]2CNCC(=O)N2c2ccc(COC(=O)c3ccccc3)cc2)C2CC2)c1,4.64
12,COCCCc1cc(CN(C(=O)[C@H]2CNCC(=O)N2c2cnc(OCCCOCc3ccccc3OC)nc2)C2CC2)c(Cl)cn1,2.43
13,CNC(=O)Cc1ccc(Cl)c(CN(C(=O)[C@H]2CNCC(=O)N2c2ccc(OCCCOCc3ccccc3)cc2)C2CC2)c1,4.53
14,CNCCc1ccc(Cl)c(CN(C(=O)[C@H]2CNCC(=O)N2c2ccc(OCCCOCc3ccccc3OC)cc2)C2CC2)c1,4.97
15,O=C(OCc1ccc(N2C(=O)CNC[C@@H]2C(=O)N(Cc2cc(CNC3CC3)ccc2Cl)C2CC2)cc1)c1ccccc1,5.2
16,COc1ccccc1COCCCOc1ncc(N2C(=O)CNC[C@@H]2C(=O)N(Cc2cc(CNC(=O)CC(F)(F)F)ccc2Cl)C2CC2)cn1,3.23
17,O=C([C@H]1CNCC(=O)N1c1ccc(OCCCOCc2ccccc2)cc1)N(Cc1cccc(Cl)c1)C1CC1,5.14
18,COCCCc1ccc(Cl)c(CN(C(=O)[C@H]2CNCC(=O)N2c2ccc(COC(=O)c3ccccc3)cc2)C2CC2)c1,5.39
19,CC(=O)NCc1ccc(Cl)c(CN(C(=O)[C@H]2CNCC(=O)N2c2ccc(OCCOc3c(Cl)cc(C)cc3Cl)cc2)C2CC2)c1,5.29
20,O=C(OCc1ccc(N2C(=O)CNC[C@@H]2C(=O)N(Cc2cccc(Cl)c2)C2CC2)cc1)c1ccccc1,4.77
21,COc1c(CN(C(=O)[C@H]2CNCC(=O)N2c2ccc(CCCOc3c(F)ccc(F)c3F)cc2)C2CC2)ccnc1C,4.12
22,O=C(OCc1ccc(N2C(=O)CNC[C@@H]2C(=O)N(Cc2cc(CCNCC(F)F)ccc2Cl)C2CC2)cc1)c1ccccc1,5.05
23,CNC(=O)CCc1ccc(Cl)c(CN(C(=O)[C@H]2CNCC(=O)N2c2ccc(OCCOc3c(Cl)cc(C)cc3Cl)nc2)C2CC2)c1,4.52
24,COc1ccccc1COCCCOc1ccc(N2C(=O)CNC[C@@H]2C(=O)N(Cc2ccc(Cl)cc2)C2CC2)cc1,5.06
25,O=C([C@H]1CNCC(=O)N1c1ccc(CCCOc2c(F)ccc(F)c2F)cc1)N(Cc1ccc(Cl)cc1)C1CC1,5.73
